Experimental data published in patent US9580449B2, “Compositions and methods for the production of pyrimidine and pyridine compounds with BTK inhibitory activity” (Merck Patent GmbH, priority 2011, dated 2017).

Experiments:
PBMC = assay: Time Dependent PBMC IC50 assay; format: cell-based
Experimental: Compounds described by embodiments of the present invention were assayed using a time dependent PMBC assay.

full-length human BTK = full-length human BTK (Homo sapiens (Human), UniProt Q06187); assay: BTK IC50 enzyme assay (microfluidic off-chip mobility shift kinase assay); format: biochemical; settings: incubated for 90 min. at 27 C; read-out: Time Dependent BTK Enzyme Assay IC50
In short: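 Read-out separates phosphorylated peptide product from substrate by charge/mass in a mobility shift format with full-length human BTK.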

Sequence of full-length human BTK (Q06187 whole entry): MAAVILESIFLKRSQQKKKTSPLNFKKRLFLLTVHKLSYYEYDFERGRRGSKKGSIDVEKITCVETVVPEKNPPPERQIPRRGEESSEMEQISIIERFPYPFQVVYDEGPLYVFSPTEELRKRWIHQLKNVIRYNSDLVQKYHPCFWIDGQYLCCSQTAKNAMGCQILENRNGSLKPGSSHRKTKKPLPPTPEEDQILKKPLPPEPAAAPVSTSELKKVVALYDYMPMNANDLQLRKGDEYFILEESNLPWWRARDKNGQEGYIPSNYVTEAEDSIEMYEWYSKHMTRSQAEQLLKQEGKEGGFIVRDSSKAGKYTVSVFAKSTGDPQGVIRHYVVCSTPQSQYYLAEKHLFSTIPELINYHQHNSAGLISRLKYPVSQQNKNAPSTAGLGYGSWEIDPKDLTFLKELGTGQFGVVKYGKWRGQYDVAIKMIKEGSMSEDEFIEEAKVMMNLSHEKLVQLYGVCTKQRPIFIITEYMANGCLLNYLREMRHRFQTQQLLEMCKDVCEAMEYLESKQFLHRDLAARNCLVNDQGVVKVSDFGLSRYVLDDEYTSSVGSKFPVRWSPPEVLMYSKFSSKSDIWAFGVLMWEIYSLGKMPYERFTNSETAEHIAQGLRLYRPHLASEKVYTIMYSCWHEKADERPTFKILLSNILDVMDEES

Row | Structure (SMILES) | IC50 (PBMC) [nM] | IC50 (full-length human BTK) [nM]
1 | C=CC(=O)Nc1cccc(Oc2ncnc(N)c2-c2ccc(Oc3ccccc3)cc2)c1 [A242, N-(3-((6-amino-5-(4-phenoxyphenyl)pyrimidin-4-yl)oxy)phenyl)acrylamide] | < 1000 | < 100
2 | C=CC(=O)N1CCC(CNc2ncnc(N)c2-c2ccc(Oc3ccccc3)cc2)CC1 [A250, 1-(4-(((6-amino-5-(4-phenoxyphenyl)pyrimidin-4-yl)amino)methyl)piperidin-1-yl)prop-2-en-1-one] | < 1000 | 
3 | C=CC(=O)Nc1cccc(Oc2ncnc(N)c2-c2ccc(C(=O)Nc3ccccc3)cc2)c1 [A258, 4-(4-(3-acrylamidophenoxy)-6-aminopyrimidin-5-yl)-N-phenylbenzamide] | > 1000 | < 100
4 | C=CC(=O)N1CC[C@@H](COc2ncnc(N)c2-c2ccc(Oc3ccccc3)cc2)C1 [A38, (R)-1-(3-(((6-amino-5-(4-phenoxyphenyl)pyrimidin-4-yl)oxy)methyl)pyrrolidin-1-yl)prop-2-en-1-one] | < 1000 | 
5 | CN(C)C/C=C/C(=O)N1CC2(CC(Oc3ncnc(N)c3-c3ccc(Oc4ccccc4)cc3)C2)C1 [A105, (E)-1-(6-((6-amino-5-(4-phenoxyphenyl)pyrimidin-4-yl)oxy)-2-azaspiro[3.3]heptan-2-yl)-4-(dimethylamino)but-2-en-1-one] | < 1000 | < 100
6 | C=CC(=O)N1CCC2(CC(Nc3ncnc(N)c3-c3ccc(Oc4ccccc4)cc3)C2)C1 (stereo not drawn) [A113, 1-(2-((6-amino-5-(4-phenoxyphenyl)pyrimidin-4-yl)amino)-6-azaspiro[3.4]octan-6-yl)prop-2-en-1-one] | < 1000 | < 100
7 | C=CC(=O)Nc1cccc(-c2c(N)ncnc2Oc2ccc(Oc3ccccc3)cc2)c1 [A245, N-(3-(4-amino-6-(4-phenoxyphenoxy)pyrimidin-5-yl)phenyl)acrylamide] | < 1000 | < 100
8 | CN(C)C/C=C/C(=O)N1CC[C@@H](CNc2ncnc(N)c2-c2ccc(Oc3ccccc3)cc2)[C@H](O)C1 [A126, (E)-1-((3S,4S)-4-(((6-amino-5-(4-phenoxyphenyl)pyrimidin-4-yl)amino)methyl)-3-hydroxypiperidin-1-yl)-4-(dimethylamino)but-2-en-1-one] | < 1000 | < 100
9 | C=CS(=O)(=O)N1CCC(CNc2ncnc(N)c2-c2ccc(Oc3ccccc3)cc2)CC1 [A10, 5-(4-phenoxyphenyl)-N4-((1-(vinylsulfonyl)piperidin-4-yl)methyl)pyrimidine-4,6-diamine] | < 1000 | 
10 | C=CC(=O)N1CC2(CC(Oc3ncnc(N)c3-c3ccc(Oc4ccncc4)cc3)C2)C1 [A114, 1-(6-((6-amino-5-(4-(pyridin-4-yloxy)phenyl)pyrimidin-4-yl)oxy)-2-azaspiro[3.3]heptan-2-yl)prop-2-en-1-one] | > 1000 | < 100
11 | Nc1ncnc(NCC2CCN(C(=O)CCl)CC2)c1-c1ccc(Oc2ccccc2)cc1 [A45, 1-(4-(((6-amino-5-(4-phenoxyphenyl)pyrimidin-4-yl)amino)methyl)piperidin-1-yl)-2-chloroethanone] | < 1000 | 
12 | CN(C)C/C=C/C(=O)Nc1cccc(Oc2ccnc(N)c2-c2ccc(Oc3ccccc3)cc2)c1 [A151, (E)-N-(3-((2-amino-3-(4-phenoxyphenyl)pyridin-4-yl)oxy)phenyl)-4-(dimethylamino)but-2-enamide] | > 1000 | < 100
13 | C=CC(=O)N[C@H]1CC[C@@H](Nc2ncnc(N)c2-c2ccc(Oc3ccccc3)cc2)CC1 [A266, N-((1s,4s)-4-((6-amino-5-(4-phenoxyphenyl)pyrimidin-4-yl)amino)cyclohexyl)acrylamide] | < 1000 | 
14 | C=CC(=O)N1CCC(COc2ncncc2-c2ccc(Oc3ccccc3)cc2)CC1 [A6, 1-(4-(((5-(4-phenoxyphenyl)pyrimidin-4-yl)oxy)methyl)piperidin-1-yl)prop-2-en-1-one] | < 1000 | < 100
15 | C=CC(=O)Nc1cccc(Oc2ncnc(N)c2-c2cnn(Cc3cccc(F)c3)c2)c1 [A67, N-(3-((6-amino-5-(1-(3-fluorobenzyl)-1H-pyrazol-4-yl)pyrimidin-4-yl)oxy)phenyl)acrylamide] | < 1000 | < 100
16 | C=CC(=O)Nc1cccc(Nc2ncnc(N)c2-c2cnn(Cc3ccccc3)c2)c1 [A70, N-(3-((6-amino-5-(1-benzyl-1H-pyrazol-4-yl)pyrimidin-4-yl)amino)phenyl)acrylamide] | < 1000 | < 100
17 | CC#CC(=O)N1CC[C@@H](Nc2ncnc(N)c2-c2ccc(Oc3ccccc3)cc2)C1 [A341, (R)-1-(3-((6-amino-5-(4-phenoxyphenyl)pyrimidin-4-yl)amino)pyrrolidin-1-yl)but-2-yn-1-one] | < 1000 | < 100
18 | C#CC(=O)N1CCC2(CC(Nc3ncnc(N)c3-c3ccc(Oc4ccccc4)cc3)C2)C1 (stereo not drawn) [A115, 1-(2-((6-amino-5-(4-phenoxyphenyl)pyrimidin-4-yl)amino)-6-azaspiro[3.4]octan-6-yl)prop-2-yn-1-one] | > 1000 | < 100
19 | C=CC(=O)N1CC2(CC(Nc3ncnc(N)c3-c3ccc(Oc4ccccc4)cc3)C2)C1 [A124, 1-(6-((6-amino-5-(4-phenoxyphenyl)pyrimidin-4-yl)amino)-2-azaspiro[3.3]heptan-2-yl)prop-2-en-1-one] | < 1000 | 

Row | Structure (SMILES) | IC50 (PBMC) [nM] | IC50 (full-length human BTK) [nM]
20 | C=CC(=O)Nc1cccc(Oc2ncncc2-c2ccc(Oc3ccccc3)cc2)c1 [A255, N-(3-((5-(4-phenoxyphenyl)pyrimidin-4-yl)oxy)phenyl)acrylamide] | < 1000 | 
21 | C#CC(=O)N[C@@H]1CCC[C@H](Nc2ncnc(N)c2-c2ccc(Oc3ccccc3)cc2)C1 (relative stereo) [A64, N-(cis-3-((6-amino-5-(4-phenoxyphenyl)pyrimidin-4-yl)amino)cyclohexyl)propiolamide] | < 1000 | < 100
22 | C=CC(=O)N[C@@H]1CCC[C@H](Nc2ncnc(N)c2-c2ccc(Oc3ccccc3)cc2)C1 (relative stereo) [A51, N-(cis-3-((6-amino-5-(4-phenoxyphenyl)pyrimidin-4-yl)amino)cyclohexyl)acrylamide] | < 1000 | 
23 | C=CC(=O)N1CCCCC(Nc2ncnc(N)c2-c2ccc(Oc3ccccc3)cc2)C1 (stereo not drawn) [A52, 1-(3-((6-amino-5-(4-phenoxyphenyl)pyrimidin-4-yl)amino)azepan-1-yl)prop-2-en-1-one] | < 1000 | < 100
24 | C=CC(=O)N1CCC(CNc2ncnc(N)c2-c2ccc(Oc3ccccc3)cc2)(OC)CC1 [A121, 1-(4-(((6-amino-5-(4-phenoxyphenyl)pyrimidin-4-yl)amino)methyl)-4-methoxypiperidin-1-yl)prop-2-en-1-one] | < 1000 | < 100
25 | C=CC(=O)N1CC[C@H](COc2ncnc(N)c2-c2ccc(Oc3ccccc3)cc2)C1 [A26, (S)-1-(3-(((6-amino-5-(4-phenoxyphenyl)pyrimidin-4-yl)oxy)methyl)pyrrolidin-1-yl)prop-2-en-1-one] | < 1000 | 
26 | C=CC(=O)N1C[C@H](Nc2ncnc(N)c2-c2ccc(Oc3ccccc3)cc2)[C@@H](O)C1 (relative stereo) [A75, 1-(trans-3-((6-amino-5-(4-phenoxyphenyl)pyrimidin-4-yl)amino)-4-hydroxypyrrolidin-1-yl)prop-2-en-1-one] | < 1000 | < 100
27 | C=CC(=O)N1CCC[C@@H](Nc2ncnc(N)c2-c2ccc(Oc3ccccc3)cc2)C1 [A247, (R)-1-(3-((6-amino-5-(4-phenoxyphenyl)pyrimidin-4-yl)amino)piperidin-1-yl)prop-2-en-1-one] | < 1000 | 
28 | C=CC(=O)N1CCC(CNc2ncnc(N)c2-c2ccc(Oc3ccccc3)cc2)C1 (stereo not drawn) [A262, 1-(3-(((6-amino-5-(4-phenoxyphenyl)pyrimidin-4-yl)amino)methyl)pyrrolidin-1-yl)prop-2-en-1-one] | < 1000 | 
29 | C=CC(=O)N1CCC(CNc2ncnc(N)c2-c2ccc(Oc3cccc(F)c3)cc2)CC1 [A34, 1-(4-(((6-amino-5-(4-(3-fluorophenoxy)phenyl)pyrimidin-4-yl)amino)methyl)piperidin-1-yl)prop-2-en-1-one] | < 1000 | 
30 | C=CC(=O)N1CC[C@@H](Nc2ncnc(N)c2-c2ccc(Oc3ccccc3)cc2)C1 [A1, (R)-1-(3-((6-amino-5-(4-phenoxyphenyl)pyrimidin-4-yl)amino)pyrrolidin-1-yl)prop-2-en-1-one] | < 1000 | 
31 | C=CC(=O)N1CCCC(Nc2ncnc(N)c2-c2ccc(Oc3ccccc3)cc2)C1 (stereo not drawn) [A253, 1-(3-((6-amino-5-(4-phenoxyphenyl)pyrimidin-4-yl)amino)piperidin-1-yl)prop-2-en-1-one] | < 1000 | 
32 | C=CC(=O)N1CC[C@H](CNc2ncnc(N)c2-c2ccc(Oc3ccccc3)cc2)C1 [A4, (R)-1-(3-(((6-amino-5-(4-phenoxyphenyl)pyrimidin-4-yl)amino)methyl)pyrrolidin-1-yl)prop-2-en-1-one] | < 1000 | 
33 | C=CC(=O)Nc1cccc(Oc2ncnc(N)c2-c2cnn(Cc3ccc(F)cc3)c2)c1 [A187, N-(3-((6-amino-5-(1-(4-fluorobenzyl)-1H-pyrazol-4-yl)pyrimidin-4-yl)oxy)phenyl)acrylamide] |  | < 100
34 | Nc1ncnc(N[C@@H]2CCCN(S(=O)(=O)c3c(F)c(F)c(F)c(F)c3F)C2)c1-c1ccc(Oc2ccccc2)cc1 [A179, (R)-N4-(1-((perfluorophenyl)sulfonyl)piperidin-3-yl)-5-(4-phenoxyphenyl)pyrimidine-4,6-diamine] |  | < 1000
35 | C=CC(=O)N1CC(CCNc2ncnc(N)c2-c2ccc(Oc3ccccc3)cc2)C1 [A103, 1-(3-(2-((6-amino-5-(4-phenoxyphenyl)pyrimidin-4-yl)amino)ethyl)azetidin-1-yl)prop-2-en-1-one] |  | < 1000
36 | CN(C)C/C=C/C(=O)N[C@H]1C[C@@H](Nc2ncnc(N)c2-c2ccc(Oc3ccccc3)cc2)C1 [A224, (E)-N-(1,3-cis-3-((6-amino-5-(4-phenoxyphenyl)pyrimidin-4-yl)amino)cyclobutyl)-4-(dimethylamino)but-2-enamide] |  | < 100
37 | C=CC(=O)Nc1cccc(-c2cnccc2Nc2ccc(Oc3ccccc3)cc2)c1 [A267, N-(3-(4-((4-phenoxyphenyl)amino)pyridin-3-yl)phenyl)acrylamide] |  | < 100
